Measurements as given in patent EP0246888A2, “Dopamine-beta-hydroxylase inhibitors” (SMITHKLINE BECKMAN CORPORATION, priority 1986, dated 1987).

What was measured:
[1] = test system: spontaneously hypertensive rats; experiment: mean arterial blood pressure in spontaneously hypertensive rats; type: in vivo
Protocol: Further, spontaneously hypertensive rats were treated with a suspension or solution of 1-benzyl-1,2,4-triazole-5-thiol at a dose of 100 mg/kg orally, and mean arterial blood pressure was monitored for 260 minutes using indwelling cannulae positioned in the tail arteries. When compared to vehicle-treated controls, the compound-treated animals' blood pressure was approximately 5% below that of controls 20 minutes following treatment. The compound-treated animals' blood pressure continued to fall until it reached its nadir of approximately 20% less than controls at 240 minutes after compound treatment. Similarly, 1-(3ʹ-fluorobenzyl)-1,2,4-triazole-5-thiol produced approximate 20% blood pressure reductions one hour after a 50 mg/kg intraperitoneal dose. The blood pressure of the treated animals remained approximately 20% less than controls when blood pressure monitoring was terminated.

DBH = molecular target: T1, DBH (Homo sapiens, UniProt P09172); details: reported by Runti et al., Il Farmaco Ed. Sci. 36, 260 (1980); cited from earlier work
T1 sequence (P09172 1-617): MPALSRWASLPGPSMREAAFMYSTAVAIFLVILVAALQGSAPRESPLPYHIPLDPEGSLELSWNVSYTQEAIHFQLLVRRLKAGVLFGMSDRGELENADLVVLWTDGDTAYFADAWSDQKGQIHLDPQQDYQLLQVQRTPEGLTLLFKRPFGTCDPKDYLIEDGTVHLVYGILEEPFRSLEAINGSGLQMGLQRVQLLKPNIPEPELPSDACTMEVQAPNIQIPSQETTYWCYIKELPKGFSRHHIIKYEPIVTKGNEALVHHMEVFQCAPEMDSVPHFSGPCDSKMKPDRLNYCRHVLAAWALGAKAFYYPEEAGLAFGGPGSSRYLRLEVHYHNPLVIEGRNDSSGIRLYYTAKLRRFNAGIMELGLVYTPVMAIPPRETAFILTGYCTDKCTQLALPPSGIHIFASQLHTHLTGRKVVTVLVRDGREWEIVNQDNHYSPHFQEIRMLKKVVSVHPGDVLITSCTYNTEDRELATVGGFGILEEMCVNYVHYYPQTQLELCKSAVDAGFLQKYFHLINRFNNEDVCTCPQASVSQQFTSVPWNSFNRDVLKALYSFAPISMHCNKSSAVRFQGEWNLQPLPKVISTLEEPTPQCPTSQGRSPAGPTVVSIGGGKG

For `Fc1cccc(Cn2ncnc2S)c1` [1-(3ʹ-Fluorobenzyl)-1,2,4-triazole-5-thiol], the blood pressure reductions ([1]; 50 mg/kg intraperitoneal dose, one hour after dose) was “approximately 20%” and the “blood pressure less than controls” value ([1]; 50 mg/kg intraperitoneal dose, when blood pressure monitoring was terminated) was “approximately 20%”.

For `Sc1ncnn1Cc1ccccc1` [1-benzyl-1,2,4-triazole-5-thiol, 1-Benzyl-1,2,4-triazole-5-thiol], the “blood pressure below that of controls” value ([1]; 100 mg/kg orally, 20 minutes following treatment, vs vehicle-treated controls) was “approximately 5%” and the “blood pressure nadir, less than controls” value ([1]; 100 mg/kg orally, 240 minutes after compound treatment, vs vehicle-treated controls) was “approximately 20%”.

For phenylpicolinic acid, the “inhibitory activity relative to fusaric acid” value (DBH) is listed as “twice the inhibitory activity of fusaric acid”.
